From patent publication US10183011B2, “Anti-depression compounds” (Board of Regents of the University of Texas System, priority 2009, dated 2019)
Entries after “also recorded” stand apart in the source; their conditions may differ.

Legend:
[1] = system: dentate gyrus of NPAS3-deficient mice; experiment: NPAS3-deficient mice: neurogenesis, apoptosis, morphology and electrophysiology of the dentate gyrus; format: in vivo, mouse (npas3−/−)
Experimental: FIG. 14: Example 45 Compound has pro-neurogenic or neuroprotective efficacy in the dentate gyrus of NPAS3-deficient animals. Six 12 week old npas3^−/− mice were orally administered vehicle or Example 45 Compound (20 mg/kg/d) for 12 days, and also injected daily with BrdU (50 mg/kg). At the end of day 12, mice were sacrificed and tissue was stained for BrdU and doublecortin (DCX).
Apoptosis in NPAS3-deficient animals was inhibited by treatment with Example 45 Compound (20 mg/kg/d, p.o., for 12 days), whereas analogous treatment with vehicle alone had no effect. Images shown are representative of 10-12 sections evaluated per animal, with 3-5 […] male NPAS3-deficient mice per group.
Armed with these genotype- and region-specific deficits in both neuron morphology and electrophysiological activity, whether prolonged administration of Example 45 Compound might favorably repair either deficit in NPAS3-deficient animals was tested. […] Following oral gavage of pregnant female mice, 14 day embryos were recovered, dissected and processed by acetonitrile:water extraction so that Example 45 Compound levels could be measured in the embryonic brain. Daily administration of 20 mg/kg of Example 45 Compound to pregnant females yielded appreciable levels of the compound in the brain tissue of developing embryos. It was similarly observed that oral administration of the compound to lactating females led to delivery of Example 45 Compound to the brain tissue of weanling pups. […] Finally, it was observed that daily IP administration of Example 45 Compound to weaned pups at 20 mg/kg was sufficient to yield brain levels of Example 45 Compound at or above the level required to enhance adult neurogenesis.
Female mice heterozygous at the NPAS3 locus were mated to heterozygous males. Two weeks post-mating, females were given a daily oral gavage of either 20 mg/kg of Example 45 Compound or vehicle-only formula. Dosing was continued throughout the last trimester of pregnancy, as well as the two week post-natal period of lactation. Following weaning, pups were given a daily IP dose of either 20 mg/kg Example 45 Compound or vehicle control. At about 7 weeks of age, mice were switched to oral gavage delivery of the same dose of Example 45 Compound. When mice were 3 months of age they were sacrificed and brain tissue was dissected and subjected to either Golgi-Cox staining or electrophysiological recording. […] The corresponding electrophysiological deficit in CA1 region of the hippocampus, however, was not affected (FIG. 13B), underscoring the specificity of Example 45 Compound to improving functioning of the dentate gyrus in this animal model.
Recognizing that the reduced thickness of the granular layer of the dentate gyrus in NPAS3-deficient animals could be attributed to elevated levels of apoptosis of newborn hippocampal neural precursor cells, the effect of Example 45 Compound treatment on apoptosis in the hippocampus of NPAS3-deficient animals was examined through immunohistochemical staining of cleaved caspase 3 (CCSP3). […] It is thereby proposed that Example 45 Compound facilitated repair of the granular layer of the dentate gyrus in NPAS3-deficient mice by ameliorating a genotype-specific exacerbation of programmed cell death.

hERG channel = hERG channel (Homo sapiens, UniProt Q12809); experiment: hERG channel binding
R6/2 transgenic mice = experiment: R6/2 model of Huntington's disease; format: in vivo, mouse
Experimental: FIG. 26A and FIG. 26B. Example 45 Compound (P7C3) Provides Therapeutic Benefit in Animal Model of Huntington's Disease. 40 female R6/2 mice were included in each of VEH (vehicle) and P7C3 (10 mg/kg P7C3 i.p. twice daily) groups, and treatment was begun at 6 weeks of age. […] All measurements were conducted blind to genotype and treatment group.
In one hypothesis, P7C3 (and its derivates) may enhance the formation of neurons in the mature hippocampus by preventing death rather than promoting proliferation of these cells. As such, P7C3 is “proneurogenic” by virtue of its neuroprotective activity. It is also possible that P7C3 (and its derivates) prevents cell death and promotes cell proliferation. It was evaluated whether P7C3 might provide therapeutic benefit in R6/2 mice. […] General condition score was determined by a 3 point scoring system that was conducted blind to genotype and treatment group (score of 0=fur looks groomed, normal posture (no hunch), clear eyes, alert; score of 1=fur beginning to stick up, slight hunch; score of 2=piloerection (fur sticking up), unkempt fur, hunch in back or neck area, crusty eyes). Death was monitored twice daily, and defined as either when animals were found dead, or when they were unable to right themselves after being placed on their backs with movement subsequently initiated by gentle prodding for 30 seconds. […]

hERG channel, sequence (Q12809 whole entry): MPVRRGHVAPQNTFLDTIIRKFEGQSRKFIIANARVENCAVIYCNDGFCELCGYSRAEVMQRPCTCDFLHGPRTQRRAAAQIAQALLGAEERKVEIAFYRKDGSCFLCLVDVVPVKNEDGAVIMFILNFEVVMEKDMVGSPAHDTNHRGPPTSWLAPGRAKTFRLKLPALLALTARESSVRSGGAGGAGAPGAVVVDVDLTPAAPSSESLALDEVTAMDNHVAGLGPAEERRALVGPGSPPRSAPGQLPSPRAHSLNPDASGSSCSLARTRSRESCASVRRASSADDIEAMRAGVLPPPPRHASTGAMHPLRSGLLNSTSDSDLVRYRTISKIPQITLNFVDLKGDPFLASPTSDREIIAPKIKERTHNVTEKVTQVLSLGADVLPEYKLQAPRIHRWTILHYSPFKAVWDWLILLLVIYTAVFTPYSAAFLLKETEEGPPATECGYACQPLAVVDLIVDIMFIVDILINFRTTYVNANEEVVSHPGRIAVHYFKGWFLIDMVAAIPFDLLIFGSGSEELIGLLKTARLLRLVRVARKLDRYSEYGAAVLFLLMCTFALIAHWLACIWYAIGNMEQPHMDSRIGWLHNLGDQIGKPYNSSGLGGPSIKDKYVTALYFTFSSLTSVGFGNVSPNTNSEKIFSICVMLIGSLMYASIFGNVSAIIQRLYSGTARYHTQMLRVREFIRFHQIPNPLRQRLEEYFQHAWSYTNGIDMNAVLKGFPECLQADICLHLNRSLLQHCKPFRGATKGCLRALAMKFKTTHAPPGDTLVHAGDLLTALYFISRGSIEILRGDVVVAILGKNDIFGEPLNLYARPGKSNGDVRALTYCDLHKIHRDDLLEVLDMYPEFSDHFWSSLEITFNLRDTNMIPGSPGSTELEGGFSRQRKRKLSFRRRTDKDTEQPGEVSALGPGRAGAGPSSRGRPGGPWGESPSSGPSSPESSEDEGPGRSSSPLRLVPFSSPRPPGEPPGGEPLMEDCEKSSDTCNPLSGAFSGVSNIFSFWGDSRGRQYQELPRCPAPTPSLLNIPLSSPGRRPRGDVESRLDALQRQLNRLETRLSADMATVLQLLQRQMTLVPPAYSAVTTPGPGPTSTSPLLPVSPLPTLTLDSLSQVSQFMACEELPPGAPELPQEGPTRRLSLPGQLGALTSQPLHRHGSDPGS

Compound: OC(CNc1ccccc1)Cn1c2ccc(Br)cc2c2cc(Br)ccc21 (stereo not shown) [Example 45 Compound]
- brain level in embryos and weanling pups ([1]; 20 mg/kg daily oral to pregnant or lactating females, LC/MS): ≥ 1350 nM
- thickness of hippocampal subfields ([1]; 20 mg/kg/d from embryonic day 14 until 3 months of age, npas3−/− mice): selectively increased the thickness of the dentate gyrus granular cell layer
- cleaved caspase 3 (CCSP3) staining, apoptosis in the dentate gyrus ([1]; 20 mg/kg/d p.o. for 12 days, NPAS3-deficient mice): significantly reduced CCSP3 staining in the dentate gyrus; also recorded: statistically significant reduction in CCSP3 staining; also recorded: inhibited
- dendritic arborization of dentate gyrus granular neurons (Golgi-Cox) ([1]; extended daily treatment 20 mg/kg/d, npas3−/− mice): robustly repaired morphological deficits in the dendritic branching; also recorded: enhanced dendritic arborization
- synaptic responses (fEPSP) in hippocampal slices ([1]; extended treatment, npas3−/− mice): normalized synaptic responses in the dentate gyrus but not the CA1 region
- increase of neurogenesis (BrdU) in npas3−/− mice ([1]; oral 20 mg/kg/d for 12 days): roughly 4 fold
- health of treated animals ([1]; prolonged administration 20 mg/kg, relative to vehicle-only controls): did not affect any aspect of the health of mothers, embryos, weanlings or young adult mice

Compound: COc1cccc(NCC(F)Cn2c3ccc(Br)cc3c3cc(Br)ccc32)c1 (stereo not shown) [Example P7C3A20, N-(3-(3,6-dibromo-9H-carbazol-9-yl)-2-fluoropropyl)-3-methoxyaniline]
- hERG channel binding (hERG channel): no hERG channel binding

Compound: OC(CNc1ccccc1)Cn1c2ccc(Br)cc2c2cc(Br)ccc21 (stereo not shown) [Example P7C3]
- survival of R6/2 mice (R6/2 transgenic mice; 10 mg/kg i.p. twice daily from 6 weeks of age): delays animal death by about three weeks
- general condition score (R6/2 transgenic mice; at 14 weeks of age): improved general condition score and appearance
